# Assay results from patent US6248765A, “Imidazole derivatives as histamine receptor H3 (ANT) agonists” (priority 1995, dated 2001).
# Where a name gives a salt, the structure may show the parent alone.
# Biological target: T1, histamine H3 receptor (Rattus norvegicus, UniProt Q9QYN8)
# T1 construct: synthesized from [^3 H]histidine by synaptosomes of rat cerebral cortex; from tissue; host or cells: rat cerebral cortex synaptosomes
# Assay: H3 antagonist power: reversal of (R)-alpha-methylhistamine-induced inhibition of [3H]histamine release from synaptosomes of rat cerebral cortex
# Assay type: biochemical
# Details: read-out: Ki (apparent dissociation constant as histamine antagonist at the H3 receptors)
# T1 sequence (Q9QYN8 whole entry): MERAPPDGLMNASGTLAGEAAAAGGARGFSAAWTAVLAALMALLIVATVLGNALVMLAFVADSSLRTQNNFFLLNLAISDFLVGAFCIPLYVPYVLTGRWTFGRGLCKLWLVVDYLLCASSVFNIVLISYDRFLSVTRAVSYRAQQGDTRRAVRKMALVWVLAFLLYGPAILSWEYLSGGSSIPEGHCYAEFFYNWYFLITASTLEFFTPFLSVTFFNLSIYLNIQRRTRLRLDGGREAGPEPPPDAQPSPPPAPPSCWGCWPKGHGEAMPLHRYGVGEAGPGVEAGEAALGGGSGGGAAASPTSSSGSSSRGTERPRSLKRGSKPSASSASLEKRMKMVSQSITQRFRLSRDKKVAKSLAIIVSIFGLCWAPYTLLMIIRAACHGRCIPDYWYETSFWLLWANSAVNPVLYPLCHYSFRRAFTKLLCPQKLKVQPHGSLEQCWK
row,Ki [nM],SMILES
1,45,"c1nc(CCCOc2ccc3c(c2)CCCC3)c[nH]1 [Example 21, 4-[3-(1,2,3,4-Tetrahydro-6-naphthyloxy)propyl]-1H-imidazole]"
2,22,"c1ccc2cc(COCCCc3c[nH]cn3)ccc2c1 [Example 56, 3-(1H-Imidazol-4-yl)propyl 2-naphthylmethyl ether]"
3,0.5,"c1nc(CCCOCCC2CC3CCC2C3)c[nH]1 (centres unmarked) [Example 61, 2-(Bicyclo[2.2.1]hept-2-yl)ethyl 3-(1H-imidazol-4-yl)propyl ether]"
4,16,"CCCCCCCOCCCc1c[nH]cn1 [Example 64, 3-(1H-Imidazol-4-yl)propyl heptyl ether]"
5,3,"CSc1ccc(OCCCc2c[nH]cn2)cc1 [Example 166, 4-[3-(4-Thiomethylphenoxy)propyl]-1H-imidazole oxalate]"

row,SMILES,Ki [nM]
1,"CON=C(C)c1ccc(OCCCc2c[nH]cn2)cc1 [Example 93, (4-(3-(1H-Imidazol-4-yl)propyloxy)phenyl)ethanone O-methyloxime]",25
2,"Cc1cc(C)cc(NC(=O)OCCCc2c[nH]cn2)c1 [Example 115, N-(3,5-Dimethylphenyl)-3-(1H-imidazol-4-yl)propyl carbamate]",44
3,"Cc1nc(-c2ccc(OCCCc3c[nH]cn3)cc2)no1 [Example 149, 3-(1H-Imidazol-4-yl)propyl 4-(5-methyl-1,2,4-oxadiazol-3-yl)phenyl ether]",44

# Test system: cerebral tele-methylhistamine
# Assay: antagonist effect in vivo: change in the level of cerebral tele-methylhistamine in mice
# Details: Mus musculus, po, 1.5 h, read-out: Change in the level of cerebral tele-methylhistamine (relative to controls)
# Procedure: Results are collated in Tables II and III below:
# These various compounds were administered at a dose of 10 mg/kg p.o., and the mice sacrificed 90 min later.
row,SMILES,change in vivo at 10 mg/kg [%]
1,"O=C(c1ccc(OCCCc2c[nH]cn2)cc1)C1CC1 [Example 81, Cyclopropyl 4-(3-(1H-imidazol-4-yl)propyloxy)phenyl ketone]",72

# Same assay, conditions: Mus musculus, po, 1.5 h; H3 antagonists; mice; 10 mg/kg p.o.; 90 min; read-out: Change in the level of cerebral tele-methylhistamine (relative to controls)
row,SMILES,change in vivo at 10 mg/kg [%]
1,"c1nc(CCCOc2ccc3c(c2)CCCC3)c[nH]1 [Example 21, 4-[3-(1,2,3,4-Tetrahydro-6-naphthyloxy)propyl]-1H-imidazole]",79
2,"CCCCCNC(=O)OCCCc1c[nH]cn1 [Example 30, 3-(1H-Imidazol-4-yl)propyl-N-pentyl carbamate]",67
3,"CCCN(CCC)C(=O)OCCCc1c[nH]cn1 [Example 39, 3-(1H-Imidazol-4-yl)propyl-N,N-dipropyl carbamate]",84
4,"CC(=O)c1ccc(OCCCc2c[nH]cn2)cc1 [Example 78, (4-(3-(1H-Imidazol-4-yl)propyloxy)phenyl)ethanone]",68
5,"C=CCNC(=O)OCCCc1c[nH]cn1 [Example 112, 3-(1H-Imidazol-4-yl)propyl-N-(2-propenyl) carbamate]",98
6,"CCCC(=NO)c1ccc(OCCCc2c[nH]cn2)cc1 [Example 140, (4-(3-(1H-Imidazol-4-yl)propyloxy)phenyl)butanone oxime]",84
7,"Cc1ccc(OCCc2c[nH]cn2)cc1 [Example 160, 4-[2-(4-Methylphenoxy)ethyl]-1H-imidazole oxalate]",95

# Biological target: T1, histamine H3 receptor
# Assay: H3 agonist effect: inhibition of [3H]histamine release from synaptosomes of rat cerebral cortex
# Assay type: biochemical
# Details: in vitro, in words
# Procedure: The partial agonist effect of the compounds is evaluated by comparison of the maximum inhibition which they induce relative to the maximum inhibition induced by exogenous histamine or [R]-α-methylhistamine; the ratio of these two values giving the intrinsic activity of the compound with respect to the system.
row,behaviour in vitro at the H3 receptor,SMILES
1,behaves essentially as an antagonist,"O=C(NC(c1ccccc1)c1ccccc1)OCCCc1c[nH]cn1 [Example 2, 3-(1H-Imidazol-4-yl)propyl-N-(diphenylmethyl) carbamate]"

# Same assay, conditions: in words
row,functional class at the histamine H3 receptors (agonists),SMILES
1,agonists or partial agonists,"CCC(C)(C)NC(=O)OCCCc1c[nH]cn1 [Example 110, 3-(1H-Imidazol-4-yl)propyl N-(2-methyl-2-butyl)carbamate]"
2,agonists or partial agonists,"CC(C)(C)CNC(=O)OCCCc1c[nH]cn1 [Example 111, N-(2,2-Dimethylpropyl)-3-(1H-imidazol-4-yl)propyl carbamate]"

# Same assay, conditions: maximum inhibition relative to that of exogenous histamine or (R)-alpha-methylhistamine; in vitro; read-out: Intrinsic activity
row,Emax [%],SMILES
1,~20,"O=C(NC(c1ccccc1)c1ccccc1)OCCCc1c[nH]cn1 [Example 2, 3-(1H-Imidazol-4-yl)propyl-N-(diphenylmethyl) carbamate]"
2,20,"CC(C)CCOCCCc1c[nH]cn1 [Example 5, 3-(1H-Imidazol-4-yl)propyl 3-methylbutyl ether]"
3,40,"FC(F)(F)c1cccc(OCCCc2c[nH]cn2)c1 [Example 8, 4-[3-(3-Trifluoramethylphenoxy)propyl]-1H-imidazole]"

# Same assay, conditions: rat cerebral cortex synaptosomes, inhibition of [3H]histamine release; read-out: EC50 (50% effective concentration of partial agonists)
row,EC50 [nM],SMILES
1,100,"O=C(NC(c1ccccc1)c1ccccc1)OCCCc1c[nH]cn1 [Example 2, 3-(1H-Imidazol-4-yl)propyl-N-(diphenylmethyl) carbamate]"
2,130,"CC(C)CCOCCCc1c[nH]cn1 [Example 5, 3-(1H-Imidazol-4-yl)propyl 3-methylbutyl ether]"
3,100,"FC(F)(F)c1cccc(OCCCc2c[nH]cn2)c1 [Example 8, 4-[3-(3-Trifluoramethylphenoxy)propyl]-1H-imidazole]"

# Test system: cerebral tele-methylhistamine
# Assay: agonist effect in vivo: change in the level of cerebral tele-methylhistamine in mice
# Details: H3 partial agonists; mice; 10 mg/kg p.o.; 90 min
# Procedure: The effect of a partial agonist in vivo is characterized by the fact that the maximum reduction in the level of tele-methylhistamine which it induces at high dose is smaller than the reduction induced by a reference H3 agonist.
# These various compounds were administered at a dose of 10 mg/kg p.o. and the mice sacrificed 90 min later.
row,SMILES,Change in the level of cerebral tele-methylhistamine (relative to controls) [%]
1,"O=C(NC(c1ccccc1)c1ccccc1)OCCCc1c[nH]cn1 [Example 2, 3-(1H-Imidazol-4-yl)propyl-N-(diphenylmethyl) carbamate]",-30
2,"CC(C)CCOCCCc1c[nH]cn1 [Example 5, 3-(1H-Imidazol-4-yl)propyl 3-methylbutyl ether]",-52
3,"FC(F)(F)c1cccc(OCCCc2c[nH]cn2)c1 [Example 8, 4-[3-(3-Trifluoramethylphenoxy)propyl]-1H-imidazole]",-41
4,"CC(C)(C)CNC(=O)OCCCc1c[nH]cn1 [Example 111, N-(2,2-Dimethylpropyl)-3-(1H-imidazol-4-yl)propyl carbamate]",-34
5,"CC(=O)c1cccc(SCCc2c[nH]cn2)c1.O=C(O)C(=O)O [Example 157, 4-[2-(3-Ethanoylphenylthio)ethyl]-1H-imidazole oxalate]",-38

# Same assay, conditions: in vivo, in words
row,SMILES,response in the tele-methylhistamine test compared with (R)-α-methylhistamine
1,"O=C(NC(c1ccccc1)c1ccccc1)OCCCc1c[nH]cn1 [Example 2, 3-(1H-Imidazol-4-yl)propyl-N-(diphenylmethyl) carbamate]",a response akin to that of (R)-α-methylhistamine

# Test system: plasma extravasation
# Assay: plasma extravasation induced in rats under the influence of capsaicin (tissue level of Evans blue)
# Assay type: in vivo
# Details: capsaicin 90 μg/kg i.v.
# From the text: In contrast, we have discovered that measurement of the activity of the cerebral histaminic neurons in vivo, reflected by the level of tele-methylhistamine, a characteristic metabolite of released histamine, constitutes a more sensitive test of agonist activity. In effect, compounds displaying an intrinsic activity ≤25% in vitro cause, in vivo, a maximum or virtually maximum fall in the level of the tele-methylhistamine. Another sensitive test of H3 agonist activity, in this instance in relation to peripheral organs, consists in measuring the plasma extravasation induced in rats under the influence of capsaicin (90 μg/kg i.v.) and determined by measuring the tissue level of Evans blue, a dye administered at the same time as capsaicin, namely 5 min before infusion and sacrifice (Saria et al., Naunyn-Schmiedeberg's Arch. Pharmacol. 1983, 324: 212).
row,SMILES,response in the capsaicin-induced plasma extravasation test compared with (R)-α-methylhistamine
1,"O=C(NC(c1ccccc1)c1ccccc1)OCCCc1c[nH]cn1 [Example 2, 3-(1H-Imidazol-4-yl)propyl-N-(diphenylmethyl) carbamate]",a response akin to that of (R)-α-methylhistamine
